Among the data in patent publication US9556139B2, “6-substituted phenoxychroman carboxylic acid derivatives” (Array BioPharma Inc., priority 2008, dated 2017) are EC50 values, retold here.

Each structure is given as a SMILES string.

One test deals with human DP2 (Homo sapiens (Human), UniProt Q9Y5Y4). The experiment in a line: DP-2 Binding Inhibition Assay (3H-PGD2 binding to membranes of K562 cells expressing DP2). Particulars: EC50 (nM) 4% HSA, inhibition of 3H-PGD2 binding, 4% HSA. The method, then: DP-2 Binding Inhibition Assay
human DP2, sequence (Q9Y5Y4 whole entry): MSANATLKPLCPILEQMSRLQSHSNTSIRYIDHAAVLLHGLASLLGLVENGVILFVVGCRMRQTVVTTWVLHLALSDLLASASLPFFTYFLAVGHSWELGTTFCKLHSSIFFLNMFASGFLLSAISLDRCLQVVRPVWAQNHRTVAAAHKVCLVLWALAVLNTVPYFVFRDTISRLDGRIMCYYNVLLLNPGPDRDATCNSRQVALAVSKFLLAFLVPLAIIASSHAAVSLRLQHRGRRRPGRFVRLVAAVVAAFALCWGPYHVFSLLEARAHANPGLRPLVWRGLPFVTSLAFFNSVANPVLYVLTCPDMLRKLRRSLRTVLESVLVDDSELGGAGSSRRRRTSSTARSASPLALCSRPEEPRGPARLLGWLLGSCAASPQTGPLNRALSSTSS
The coding sequence of human DP2 was introduced into the human Leukemic cell line K562 by electroporation and stable clones expressing DP2 were obtained by limiting dilution followed by cell surface staining with a rat monoclonal antibody specific for human DP2. Membranes were prepared from one of these DP2 expressing clones and used to determine the ability of compounds of the present invention to inhibit binding of prostaglandin D2 (PGD2) to its receptor DP2 in the presence of one or more of the following serum protein concentrations, 0.1% BSA, 1% HSA or 4% HSA, by the following procedure. Membranes (1.25 μg/well for 0.1% BSA and 6 μg/well for 1% or 4% HSA) were mixed with ^3H-labeled PGD2 and various concentrations of test compounds in 150 μL of binding buffer (50 mM Tris-HCl, pH 7.4, 40 mM MgCl2, 0.1% bovine serum albumin, 0.1% NaN3) in 96-well U-bottom polypropylene plates. After incubation for 60 minutes at room temperature, the assay was transferred to a filtration plate (#MAFB; Millipore Corporation, Bedford, Mass.), and washed three times with binding buffer. Radioactivity was measured by a scintillation counter (TopCount; PerkinElmer Life Sciences, Boston, Mass.). Nonspecific binding was determined by incubations in the presence of 1 μM unlabeled PGD2 or 5 μM of a known DP2 antagonist. EC50 values for inhibition of binding were determined for each compound tested from the inflexion point of a standard 4-parameter logistical curve fitted to the values obtained.
A word on the EC50: it is the concentration giving half of the maximal effect. Take `O=C(NC1CCC(c2ccccc2)CC1)c1ccc(Oc2cc3c(cc2Cl)C(C(=O)O)CCO3)cc1` (single isomer, unassigned) [Example 155 peak 1, 6-chloro-7-(4-(4-phenylcyclohexylcarbamoyl)phenoxy)chroman-4-carboxylic acid, isomer 1]: the concentration for a half-maximal effect (EC50) is 399 nM.

The molecule `O=C(NC1CCC(c2ccccc2)CC1)c1ccc(Oc2cc3c(cc2Cl)C(C(=O)O)CCO3)cc1` (single isomer, unassigned) [Example 155 peak 2, 6-chloro-7-(4-(4-phenylcyclohexylcarbamoyl)phenoxy)chroman-4-carboxylic acid, isomer 2] displayed an EC50 of 1670 nM.

The same test, now with this note: read-out: EC50 (Nm) 1% HSA; inhibition of 3H-PGD2 binding, 1% HSA.
Regarding `N#Cc1cc2c(cc1Oc1ccc(C(=O)NC3Cc4ccccc4C3)cc1)OCCC2C(=O)O` (stereo not shown) [Example 6, 6-Cyano-7-(4-(2,3-dihydro-1H-inden-2-ylcarbamoyl)phenoxy)chroman-4-carboxylic acid], the EC50 was found to be 77.3 nM. As to `N#Cc1cc2c(cc1Oc1ccc(C(=O)NCc3cccc4ccccc34)cc1)OCCC2C(=O)O` (stereo not shown) [Example 54, 6-Cyano-7-(4-(naphthalen-1-ylmethylcarbamoyl)phenoxy)chroman-4-carboxylic acid], the 50% effective concentration (EC50) was 109 nM. Still for that read-out and setting: next, `N#Cc1cc2c(cc1Oc1ccc(C(=O)Nc3ccc4ccccc4c3)cc1)OCCC2C(=O)O` (stereo not shown) [Example 76, 6-Cyano-7-(4-(naphthalen-2-ylcarbamoyl)phenoxy)chroman-4-carboxylic acid]: 6.7 nM.

The same test, now with this note: read-out: EC50 (nM) 4% HSA; inhibition of 3H-PGD2 binding, 4% HSA.
With `O=C(NC1CCC(c2cccc(C(F)(F)F)c2)C1)c1ccc(Oc2cc3c(cc2Cl)C(C(=O)O)CCO3)cc1` (stereo not shown) [Example 170, Sodium 6-chloro-7-(4-(3-(3-(trifluoromethyl)phenyl)cyclopentylcarbamoyl)phenoxy)chroman-4-carboxylate], the EC50 came out at 298 nM. Still for that read-out and setting: next, `O=C(NCCc1ccc(Cl)cc1Cl)c1ccc(Oc2cc3c(cc2C2CC2)C(C(=O)O)CCO3)cc1` (stereo not shown) [Example 42, Sodium 6-cyclopropyl-7-(4-(2,4-dichlorophenethylcarbamoyl)phenoxy)chroman-4-carboxylate]: 73.8 nM; `O=C(NC1COC2(CCCC2)C1)c1ccc(Oc2cc3c(cc2Cl)C(C(=O)O)CCO3)cc1` (stereo not shown) [Example 187, Sodium 7-(4-(1-oxaspiro[4.4]nonan-3-ylcarbamoyl)phenoxy)-6-chlorochroman-4-carboxylate]: 649 nM; `O=C(NC1CCCC(c2ccccc2)C1)c1ccc(Oc2cc3c(cc2Cl)C(C(=O)O)CCO3)cc1` (stereo not shown) [Example 158, 6-Chloro-7-(4-(3-phenylcyclohexylcarbamoyl)phenoxy)chroman-4-carboxylic acid]: 1650 nM. Same read-out and setting: next, `O=C(NCCc1cc(F)ccc1Oc1ccc(Cl)c(Cl)c1)c1ccc(Oc2cc3c(cc2Cl)C(C(=O)O)CCO3)cc1` (stereo not shown) [Example 212, sodium 6-chloro-7-(4-(2-(3,4-dichlorophenoxy)-5-fluorophenethylcarbamoyl)phenoxy)chroman-4-carboxylate]: 81.5 nM.

Take `O=C(NCCc1ccc(Cl)c(Cl)c1)c1ccc(Oc2cc3c(cc2Cl)C(C(=O)O)CCO3)cc1` (stereo not shown) [Example 138, Sodium 6-chloro-7-(4-(3,4-dichlorophenethylcarbamoyl)phenoxy)chroman-4-carboxylate]: the EC50 was determined as 239 nM. Regarding `Cc1ccc(SCCNC(=O)c2ccc(Oc3cc4c(cc3Cl)C(C(=O)O)CCO4)cc2)cc1` (stereo not shown) [Example 112, Sodium 6-chloro-7-(4-(2-(p-tolylthio)ethylcarbamoyl)phenoxy)chroman-4-carboxylate], the half-maximal effective concentration (EC50) came out at 4190 nM.

Turning to `O=C(NCCc1ccccc1Oc1ccccc1)c1ccc(Oc2cc3c(cc2Cl)C(C(=O)O)CCO3)cc1` (stereo not shown) [Example 65, Sodium 6-chloro-7-(4-(2-phenoxyphenethylcarbamoyl)phenoxy)chroman-4-carboxylate], the half-maximal effective concentration (EC50) came to 80.4 nM. The same measure, in the same setting: the value for `CC(C)(C)CCNC(=O)c1ccc(Oc2cc3c(cc2Cl)C(C(=O)O)CCO3)cc1` (stereo not shown) [Example 179, Sodium 6-chloro-7-(4-(3,3-dimethylbutylcarbamoyl)phenoxy)chroman-4-carboxylate] was 1110 nM; that for `CSc1ccc(CCNC(=O)c2ccc(Oc3cc4c(cc3Cl)C(C(=O)O)CCO4)cc2)cc1` (stereo not shown) [Example 118, Sodium 6-chloro-7-(4-(4-(methylthio)phenethylcarbamoyl)phenoxy)chroman-4-carboxylate] was 426 nM. The same measure, in the same setting: next, `O=C(Nc1ccc(F)c(-c2ccc(Cl)cc2)c1)c1ccc(Oc2cc3c(cc2Cl)C(C(=O)O)CCO3)cc1` (stereo not shown) [Example 71, 6-Chloro-7-(4-(4′-chloro-6-fluorobiphenyl-3-ylcarbamoyl)phenoxy)chroman-4-carboxylic acid]: 119 nM; `O=C(NCC/C=C\c1ccccc1Cl)c1ccc(Oc2cc3c(cc2Cl)C(C(=O)O)CCO3)cc1` (stereo not shown) [Example 16, Sodium (Z)-6-chloro-7-(4-(4-(2-chlorophenyl)but-3-enylcarbamoyl)phenoxy)chroman-4-carboxylate]: 318 nM; `O=C(NCCc1cccn1-c1ccc(C(F)(F)F)cc1)c1ccc(Oc2cc3c(cc2Cl)C(C(=O)O)CCO3)cc1` (stereo not shown) [Example 194, sodium 6-chloro-7-(4-(2-(1-(4-(trifluoromethyl)phenyl)-1H-pyrrol-2-yl)ethylcarbamoyl)phenoxy)chroman-4-carboxylate]: 3010 nM. On the same count and under the same terms, the value for `CSc1cc(Cl)ccc1CCNC(=O)c1ccc(Oc2cc3c(cc2Cl)C(C(=O)O)CCO3)cc1` (stereo not shown) [Example 229, 6-chloro-7-(4-(4-chloro-2-(methylthio)phenethylcarbamoyl)phenoxy)chroman-4-carboxylic acid] was 67.5 nM; that for `O=C(NCCc1ccccc1C(F)(F)F)c1ccc(Oc2cc3c(cc2Cl)C(C(=O)O)CCO3)cc1` (stereo not shown) [Example 152, Sodium 6-chloro-7-(4-(2-(trifluoromethyl)phenethylcarbamoyl)phenoxy)chroman-4-carboxylate] was 160 nM; that for `O=C(NC1CCN(c2cccc(Cl)c2)C1)c1ccc(Oc2cc3c(cc2Cl)C(C(=O)O)CCO3)cc1` (stereo not shown) [Example 119, Sodium 6-chloro-7-(4-(1-(3-chlorophenyl)pyrrolidin-3-ylcarbamoyl)phenoxy)chroman-4-carboxylate] was 206 nM. Regarding `CSc1cccc(C2CCC(NC(=O)c3ccc(Oc4cc5c(cc4Cl)C(C(=O)O)CCO5)cc3)C2)c1` (stereo not shown) [Example 172, Sodium 6-chloro-7-(4-(3-(3-(methylthio)phenyl)cyclopentylcarbamoyl)phenoxy)chroman-4-carboxylate], the EC50 was 282 nM. In the case of `COc1ccc(CCNC(=O)c2ccc(Oc3cc4c(cc3Cl)C(C(=O)O)CCO4)cc2)cc1OC` (stereo not shown) [Example 141, Sodium 6-chloro-7-(4-(3,4-dimethoxyphenethylcarbamoyl)phenoxy)chroman-4-carboxylate], the 50% effective concentration (EC50) is 1000 nM. Same read-out and setting: the value for `O=C(NCCc1cccc(Cl)c1)c1ccc(Oc2cc3c(cc2Cl)C(C(=O)O)CCO3)cc1` (stereo not shown) [Example 150, Sodium 6-chloro-7-(4-(3-chlorophenethylcarbamoyl)phenoxy)chroman-4-carboxylate] was 341 nM; that for `CC(C)Oc1cc(Cl)ccc1CCNC(=O)c1ccc(Oc2cc3c(cc2Cl)C(C(=O)O)CCO3)cc1` (stereo not shown) [Example 202, sodium 6-chloro-7-(4-(4-chloro-2-isopropoxy-phenethylcarbamoyl)phenoxy)chroman-4-carboxylate] was 71.6 nM; that for `CCOc1ccc(CCNC(=O)c2ccc(Oc3cc4c(cc3Cl)C(C(=O)O)CCO4)cc2)c(OCC)c1` (stereo not shown) [Example 225, 6-chloro-7-(4-(2,4-diethoxyphenethylcarbamoyl)phenoxy)chroman-4-carboxylic acid] was 56 nM. Take `O=C(NCC(O)c1ccc(Cl)cc1Cl)c1ccc(Oc2cc3c(cc2Cl)C(C(=O)O)CCO3)cc1` (stereo not shown) [Example 197, sodium 6-chloro-7-(4-(2-(2,4-dichlorophenyl)-2-hydroxyethylcarbamoyl)phenoxy)chroman-4-carboxylate]: the EC50 turned out to be 689 nM. For `O=C(NCCc1ccccc1Br)c1ccc(Oc2cc3c(cc2Cl)C(C(=O)O)CCO3)cc1` (stereo not shown) [Example 91, Sodium 7-(4-(2-bromophenethylcarbamoyl)phenoxy)-6-chlorochroman-4-carboxylate], the concentration for a half-maximal effect (EC50) was 192 nM. For the molecule `COc1cccc(CCNC(=O)c2ccc(Oc3cc4c(cc3Cl)C(C(=O)O)CCO4)cc2)c1OC` (stereo not shown) [Example 89, Sodium 6-chloro-7-(4-(2,3-dimethoxyphenethylcarbamoyl)phenoxy)chroman-4-carboxylate], the EC50 came out at 146 nM. For `Cc1cccc(CCNC(=O)c2ccc(Oc3cc4c(cc3Cl)C(C(=O)O)CCO4)cc2)c1` (stereo not shown) [Example 146, Sodium 6-chloro-7-(4-(3-methylphenethylcarbamoyl)phenoxy)chroman-4-carboxylate], the concentration giving a half-maximal response (EC50) worked out at 608 nM. In the case of `O=C(NC1CCN(c2cccc(C(F)(F)F)c2)C1)c1ccc(Oc2cc3c(cc2Cl)C(C(=O)O)CCO3)cc1` (stereo not shown) [Example 122, Sodium 6-chloro-7-(4-(1-(3-(trifluoromethyl)phenyl)pyrrolidin-3-ylcarbamoyl)phenoxy)chroman-4-carboxylate], the EC50 was found to be 242 nM.
